Consider 18 molecules from patent US7579356B2, “Thia-tetraazaacenaphthylene kinase inhibitors” (Janssen Pharmaceutica NV, priority 2005, dated 2009).

For one assay, the target named is T1, EGFR (Homo sapiens, UniProt P00533).
T1 construct: The intracellular portion of EGFR started at nucleotide 2189 (corresponding to amino acid 667) and ended at the termination codon; made in house; host or cells: Sf9 insect cells (baculovirus)
Description: EGFR Kinase Assay. The assay is classed as biochemical. Conditions: for IC50: GST-EGFR, ATP 5 μM; for inhibition at 2 µM: test concentration of 2 μM, compounds without an IC50, read-out: EGFR inhibition in percent. Summed up: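 GST-fused human EGFR intracellular domain (from aa 667), Sf9-expressed, phosphorylated biotinylated polyGluTyr with 5 μM ATP plus γ-33P ATP in Tris pH 8.0, MgCl2, vanadate, 1 mM DTT, 1 h at 30 °C. Streptavidin Flashplate scintillation read; triplicate 16-point half-log series from 200 uM; IC50 from % inhibition vs log concentration, else % inhibition at 2 μM.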

The target in a further assay is T2, Lyn kinase (human) (Homo sapiens, UniProt P07948).
T2 construct: purchased Upstate Biotechnology, Lake Placid, N.Y
Nature of the assay: Lyn Kinase Assay. The assay is classed as biochemical. As to conditions: test concentration of 2 μM; for % Inhibition (Lyn): 2 µM. In a few lines:
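Radiometric filter-binding assay with recombinant human Lyn, poly(Glu,Tyr) substrate (0.1 mg/mL final), 5 μM ATP plus γ-33P-ATP in MOPS pH 7.5/Mg acetate buffer; 40 min at 30 °C, stopped with phosphoric acid, counted by scintillation. Reported as percent inhibition at 2 μM, with IC50 (μM) where determined.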

The subject of the next assay is HCT-116 colon carcinoma. Nature of the assay: Cell Proliferation Inhibition Assay, HCT-116 (14C-thymidine). The assay is classed as cell-based. Conditions: Homo sapiens, HCT-116 cell proliferation. From the text:
Cell Proliferation Inhibition Assay
The ability of a test compound to inhibit unregulated cell proliferation may be determined by measuring incorporation of ^14C-labelled thymidine into newly synthesized DNA within cell lines derived from carcinomas originating from several tissues. Accordingly, the effect of a test compound on proliferation of cells with a variety of phenotypes may be determined.
Carcinoma cell lines used include the HeLa cervical adenocarcinoma from the American Type Culture Collection (ATCC Cat. #CCL2), A375 malignant melanoma (ATCC Cat. #CRL-1619), HCT-116 colon carcinoma (ATCC Cat. #CCL-247), SKBR3 breast carcinoma (ATCC Cat. #HTB-30) and BT474 breast carcinoma (ATCC Cat. #HTB-20).
The carcinoma cells were trypsinized and counted. The cells (3000-8000 count) were added to each well of a 96-well CytoStar tissue culture treated scintillating microplate (Amersham #RPNQ0160) in complete medium (100 μL) and the plate was then incubated in complete medium for 24 hrs at 37° C. in an inert atmosphere containing 5% CO2.
Test compound (1 μL) in 100% DMSO was added to the plate test-wells with DMSO only added to control-wells. The plate was incubated in complete medium for a second 24 hr period at 37° C. in an atmosphere containing 5% CO2.
An aliquot of a solution of Methyl ^14C-thymidine (56 mC/mmol) (NEN #NEC568 or AMersham #CFA532) and complete medium (20 uL to provide 0.2 μCl/well) was then added to each well and the plate was incubated for a third 24 hr period at 37° C. in an atmosphere containing 5% CO2.
The plate contents were then discarded, the plate washed twice with PBS (200 μL) and then PBS (200 μL) was added to each well. The plate was sealed and the degree of methyl ^14C-thymidine incorporation was quantified on a Packard Top Count.
Cell proliferation of the Hela cell line was measured using the ATP-Lite method as described in the ATP Lite Kit (Perkin-Elmer Kit Number 6106941) or the C^14 method as described above. Cell proliferation of the other cell lines was measured using the C^14 method.

Molecules are shown by their SMILES.

T2 sequence (P07948 whole entry): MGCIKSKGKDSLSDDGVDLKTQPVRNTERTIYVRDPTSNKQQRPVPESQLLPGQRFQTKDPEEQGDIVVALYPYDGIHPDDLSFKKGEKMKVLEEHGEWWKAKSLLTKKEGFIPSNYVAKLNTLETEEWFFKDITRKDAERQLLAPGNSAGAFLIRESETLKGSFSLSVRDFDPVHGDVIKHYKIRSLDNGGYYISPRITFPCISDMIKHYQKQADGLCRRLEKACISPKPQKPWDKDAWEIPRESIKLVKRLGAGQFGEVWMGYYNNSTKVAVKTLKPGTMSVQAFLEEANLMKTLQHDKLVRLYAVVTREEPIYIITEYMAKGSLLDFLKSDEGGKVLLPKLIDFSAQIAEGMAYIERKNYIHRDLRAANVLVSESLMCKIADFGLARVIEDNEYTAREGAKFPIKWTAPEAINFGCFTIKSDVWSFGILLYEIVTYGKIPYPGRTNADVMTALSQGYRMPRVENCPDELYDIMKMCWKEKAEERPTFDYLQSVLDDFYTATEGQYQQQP
T1 sequence (P00533 669-1210 limits assumed): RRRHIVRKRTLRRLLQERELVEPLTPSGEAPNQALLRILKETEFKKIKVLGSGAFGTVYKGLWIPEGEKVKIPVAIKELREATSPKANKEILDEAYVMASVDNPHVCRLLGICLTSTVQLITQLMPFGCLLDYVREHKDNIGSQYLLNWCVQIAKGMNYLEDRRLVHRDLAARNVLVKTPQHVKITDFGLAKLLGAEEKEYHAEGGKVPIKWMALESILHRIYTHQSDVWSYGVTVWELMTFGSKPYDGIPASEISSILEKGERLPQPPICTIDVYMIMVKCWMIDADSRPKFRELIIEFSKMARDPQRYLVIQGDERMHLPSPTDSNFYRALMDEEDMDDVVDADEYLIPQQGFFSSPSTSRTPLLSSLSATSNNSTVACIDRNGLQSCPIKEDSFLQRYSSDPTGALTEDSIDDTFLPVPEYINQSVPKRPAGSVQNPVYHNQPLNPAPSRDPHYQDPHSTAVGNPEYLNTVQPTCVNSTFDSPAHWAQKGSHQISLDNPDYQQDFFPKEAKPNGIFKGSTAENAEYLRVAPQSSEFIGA

Broadly, the IC50 is the concentration at which inhibition is half-maximal. A lower IC50 goes with greater potency. As usually defined, the inhibition is the drop in the measured response relative to a control, in per cent. Take `O=C(Nc1ccc(CN2CCOCC2)cc1)c1sc2ncnc3c2c1NC(=O)N3c1ccc(Oc2ccc(F)cc2)cc1` [Cpd 110, 5-[4-(4-fluoro-phenoxy)-phenyl]-4-oxo-4,5-dihydro-3H-1-thia-3,5,6,8-tetraaza-acenaphthylene-2-carboxylic acid (4-morpholin-4-ylmethyl-phenyl)-amide]: the results for the concentration for half-maximal inhibition (IC50) against EGFR and in the assay with HCT-116 colon carcinoma were 0.034 µM and 10 µM, respectively. Besides, the inhibition at 2 µM against Lyn kinase (human) was 21%.
In the same order, the values of `O=C(Nc1ccc(N2CCOCC2)cc1)c1sc2ncnc3c2c1NC(=O)N3c1ccc2c(ccn2Cc2cccc(F)c2)c1` [Cpd 94, 5-[1-(3-fluoro-benzyl)-1H-indol-5-yl]-4-oxo-4,5-dihydro-3H-1-thia-3,5,6,8-tetraaza-acenaphthylene-2-carboxylic acid (4-morpholin-4-yl-phenyl)-amide] are 0.264 µM, 100 µM and 3%.
In the same order, the values of `O=C(NCCCN1CCOCC1)c1sc2ncnc3c2c1NC(=O)N3c1ccc2c(ccn2Cc2cccc(F)c2)c1` [Cpd 95, 5-[1-(3-fluoro-benzyl)-1H-indol-5-yl]-4-oxo-4,5-dihydro-3H-1-thia-3,5,6,8-tetraaza-acenaphthylene-2-carboxylic acid (3-morpholin-4-yl-propyl)-amide] are 0.069 µM, 10 µM and 18%.
For the molecule `Cc1ccc(N2C(=O)Nc3c(C(=O)Nc4ccc(CN5CCOCC5)cc4)sc4ncnc2c34)cc1Br` [Cpd 108, 5-(3-bromo-4-methyl-phenyl)-4-oxo-4,5-dihydro-3H-1-thia-3,5,6,8-tetraaza-acenaphthylene-2-carboxylic acid (4-morpholin-4-ylmethyl-phenyl)-amide], the IC50 at EGFR is 0.043 µM; in the assay with HCT-116 colon carcinoma, 100 µM. On Lyn kinase (human), the inhibition at 2 µM came to 69%.
Take `O=C(O)c1sc2ncnc3c2c1NC(=O)N3c1ccc2c(ccn2Cc2cccc(F)c2)c1` [Cpd 77, 5-[1-(3-fluoro-benzyl)-1H-indol-5-yl]-4-oxo-4,5-dihydro-3H-1-thia-3,5,6,8-tetraaza-acenaphthylene-2-carboxylic acid]: the IC50 stood at 0.164 µM on EGFR and 100 µM with HCT-116 colon carcinoma.
As for `CCOC(=O)c1sc2ncnc3c2c1NC(=O)N3c1cc(Br)ccc1C` [Cpd 103, 5-(5-bromo-2-methyl-phenyl)-4-oxo-4,5-dihydro-3H-1-thia-3,5,6,8-tetraaza-acenaphthylene-2-carboxylic acid ethyl ester], at EGFR, the inhibition at 2 µM amounted to 21%. The same molecule displayed an IC50 with HCT-116 colon carcinoma of 100 µM.
In the case of `CCOC(=O)c1sc2ncnc3c2c1NC(=O)N3c1ccc(C)c(Br)c1` [Cpd 102, 5-(3-bromo-4-methyl-phenyl)-4-oxo-4,5-dihydro-3H-1-thia-3,5,6,8-tetraaza-acenaphthylene-2-carboxylic acid ethyl ester], the inhibition at 2 µM at EGFR stood at 17%. Moreover, at Lyn kinase (human), the inhibition at 2 µM turned out to be 8% and the “% Inhibition (Lyn)” value worked out at 13%. Moreover, it took 100 µM to reach half-maximal inhibition in the assay with HCT-116 colon carcinoma (IC50).
As for `CN1CCC(NC(=O)c2sc3ncnc4c3c2NC(=O)N4c2ccc3c(ccn3Cc3cccc(F)c3)c2)CC1` [Cpd 92, 5-[1-(3-fluoro-benzyl)-1H-indol-5-yl]-4-oxo-4,5-dihydro-3H-1-thia-3,5,6,8-tetraaza-acenaphthylene-2-carboxylic acid (1-methyl-piperidin-4-yl)-amide], the results for the IC50 on EGFR and with HCT-116 colon carcinoma were 0.045 µM and 4.36 µM, respectively.
`Cc1ccc(Br)cc1N1C(=O)Nc2c(C(=O)NC3CCN(C)CC3)sc3ncnc1c23` [Cpd 117, 5-(5-bromo-2-methyl-phenyl)-4-oxo-4,5-dihydro-3H-1-thia-3,5,6,8-tetraaza-acenaphthylene-2-carboxylic acid (1-methyl-piperidin-4-yl)-amide]: the results for the half-inhibitory concentration (IC50) at EGFR and in the assay on HCT-116 colon carcinoma were 1.78 µM and 100 µM, respectively. Moreover, the inhibition at 2 µM at Lyn kinase (human) was 12%.
For the molecule `O=C(O)c1sc2ncnc3c2c1NC(=O)N3c1ccc2c(cnn2Cc2cccc(F)c2)c1` [Cpd 79, 5-[1-(3-fluoro-benzyl)-1H-indazol-5-yl]-4-oxo-4,5-dihydro-3H-1-thia-3,5,6,8-tetraaza-acenaphthylene-2-carboxylic acid], the results for the IC50 on EGFR and in the assay on HCT-116 colon carcinoma were 0.302 µM and 100 µM, respectively.
Take `Cc1ccc(Br)cc1N1C(=O)Nc2c(C(=O)Nc3ccc(CN4CCOCC4)cc3)sc3ncnc1c23` [Cpd 109, 5-(5-bromo-2-methyl-phenyl)-4-oxo-4,5-dihydro-3H-1-thia-3,5,6,8-tetraaza-acenaphthylene-2-carboxylic acid (4-morpholin-4-ylmethyl-phenyl)-amide]: the half-inhibitory concentration (IC50) was 0.344 µM against EGFR and 10 µM in the assay on HCT-116 colon carcinoma. On Lyn kinase (human), this molecule registered an inhibition at 2 µM of 75%.
Consider `O=C(Nc1ccc(CN2CCCCC2)cc1)c1sc2ncnc3c2c1NC(=O)N3c1ccc2c(ccn2Cc2cccc(F)c2)c1` [Cpd 87, 5-[1-(3-fluoro-benzyl)-1H-indol-5-yl]-4-oxo-4,5-dihydro-3H-1-thia-3,5,6,8-tetraaza-acenaphthylene-2-carboxylic acid (4-piperidin-1-ylmethyl-phenyl)-amide], for which the figures for the half-inhibitory concentration (IC50) on EGFR and in the assay with HCT-116 colon carcinoma were 0.113 µM and 3.69 µM, respectively.
As for `CCOC(=O)c1sc2ncnc3c2c1NC(=O)N3c1ccc(Oc2ccc(F)cc2)cc1` [Cpd 101, 5-[4-(4-fluoro-phenoxy)-phenyl]-4-oxo-4,5-dihydro-3H-1-thia-3,5,6,8-tetraaza-acenaphthylene-2-carboxylic acid ethyl ester], the inhibition at 2 µM at EGFR turned out to be 18%. At Lyn kinase (human), the inhibition at 2 µM is 3% and the “% Inhibition (Lyn)” value is 6%. The molecule further registered a half-maximal inhibitory concentration (IC50) in the assay with HCT-116 colon carcinoma of 100 µM.
Turning to `O=C(NCCN1CCOCC1)c1sc2ncnc3c2c1NC(=O)N3c1ccc2c(ccn2Cc2cccc(F)c2)c1` [Cpd 93, 5-[1-(3-fluoro-benzyl)-1H-indol-5-yl]-4-oxo-4,5-dihydro-3H-1-thia-3,5,6,8-tetraaza-acenaphthylene-2-carboxylic acid (2-morpholin-4-yl-ethyl)-amide], the IC50 against EGFR was found to be 0.07 µM; with HCT-116 colon carcinoma, 10 µM. Moreover, the inhibition at 2 µM on Lyn kinase (human) was 16%.
As for `CCOC(=O)c1sc2ncnc3c2c1NC(=O)N3c1ccc2c(cnn2Cc2cccc(F)c2)c1` [Cpd 78, 5-[1-(3-fluoro-benzyl)-1H-indazol-5-yl]-4-oxo-4,5-dihydro-3H-1-thia-3,5,6,8-tetraaza-acenaphthylene-2-carboxylic acid ethyl ester], the IC50 against EGFR is 2.22 µM; with HCT-116 colon carcinoma, 100 µM.
Turning to `O=C(Nc1ccc(CN2CCOCC2)cc1)c1sc2ncnc3c2c1NC(=O)N3c1cccc(Br)c1` [Cpd 36, 5-(3-bromo-phenyl)-4-oxo-4,5-dihydro-3H-1-thia-3,5,6,8-tetraaza-acenaphthylene-2-carboxylic acid (4-morpholin-4-ylmethyl-phenyl)-amide], the IC50 worked out at 0.184 µM against EGFR and 67.9 µM in the assay on HCT-116 colon carcinoma.
Take `O=C(Nc1ccc(CN2CCCCC2)cc1)c1sc2ncnc3c2c1NC(=O)N3c1ccc2c(cnn2Cc2cccc(F)c2)c1` [Cpd 80, 5-[1-(3-fluoro-benzyl)-1H-indazol-5-yl]-4-oxo-4,5-dihydro-3H-1-thia-3,5,6,8-tetraaza-acenaphthylene-2-carboxylic acid (4-piperidin-1-ylmethyl-phenyl)-amide]: the IC50 is 0.036 µM against EGFR and 14 µM with HCT-116 colon carcinoma.
As to `O=C(Nc1ccc(CN2CCOCC2)cc1)c1sc2ncnc3c2c1NC(=O)N3c1ccc(OCc2ccccn2)c(Cl)c1` [Cpd 52, 5-[3-chloro-4-(pyridin-2-ylmethoxy)-phenyl]-4-oxo-4,5-dihydro-3H-1-thia-3,5,6,8-tetraaza-acenaphthylene-2-carboxylic acid (4-morpholin-4-ylmethyl-phenyl)-amide], the IC50 against EGFR was 0.051 µM; in the assay with HCT-116 colon carcinoma, 100 µM. Also, 2 µM produced 16.2% inhibition against Lyn kinase (human).
